Patent publication US20140073637A1, “AMINO-SUBSTITUTED-ALKYLOXY-BENZO[E]PYRIDO[4,3-B]INDOLE DERIVATIVES AS NEW POTENT KINASE INHIBITORS” (INSTITUT CURIE, priority 2011, published 2014)
Where two headings read alike, the source gives them in different places.

Experiments:
[1] = system: H322; assay: Cell viability test (CellTiter 96 AQueous One Solution); type: cell-based; conditions: NCI-H322; H322 (Lung); 72 h of treatment; read-out: IC50 (cell line viability)
Protocol: (§1) H358, H322 (lung cancer cells), U373 (glioblastomes) and HeLa ([…]) were grown in DMEM (1.5 g/L glucose) whereas HL60 (human myeloid cell line) cells were in RPMI 1640. U2OS (a human osteosarcoma cell line) cells were cultured in McCoy's Medium 5 A and liver cells (SK Hep 1) in DMEM (4 g/L glucose, (Gibco-Invitrogen). Media (Gibco-Invitrogen), were supplemented with 10% heat-inactivated foetal bovine serum (Gibco-Invitrogen), L-glutamine (2 mM), penicillin (100 UI/ml) and streptomycin (100 μg/ml).
(§2) Cell proliferation assays were conducted in 96 well culture plates. Assays were run in triplicate. Cell viability was estimated upon 72 h of treatment with varying concentrations of compound by addition of CellTiter 96Queous one Solution Reagent (Promega) directly to culture wells under conditions defined by the manufacturer.

[2] = system: SkHep1; assay: as above; type: cell-based; conditions: Homo sapiens, SK-HEP1; SkHep1 (Liver cells); 72 h of treatment; read-out: IC50 (cell line viability)
Protocol: as §1, §2

[3] = system: HeLa cells; assay: Cell viability / antiproliferative assay; type: cell-based; conditions: Homo sapiens, HeLa
From the text: Antiproliferative assays with HeLa cells have been performed with the preferred compounds and compared to the C1 and C2. The average of three independent experiments is shown. IC50 obtained with C1 and C2 were previously reported in Hoang et al, 2009, and are indicated for comparison. The lateral chain of each molecule is recalled, knowing that all the molecules have an oxo group at position 11. IC50 are indicated, i.e. the concentration that induced 50% death.
as §1, §2

[4] = target: T1, Aurora A (Homo sapiens, UniProt O14965); assay: Kinase profiling in vitro at 1 μM; type: biochemical; conditions: for effect on kinase activity (FIG. 2, in words) / remaining activity at 1 µM: Aurora A; for effect on kinase activity (FIG. 2, in words): recombinant kinase in vitro; for remaining activity at 1 µM: compound at 1 μM, read-out: percentage of remaining activity of recombinant kinase
T1 sequence (O14965 1-403): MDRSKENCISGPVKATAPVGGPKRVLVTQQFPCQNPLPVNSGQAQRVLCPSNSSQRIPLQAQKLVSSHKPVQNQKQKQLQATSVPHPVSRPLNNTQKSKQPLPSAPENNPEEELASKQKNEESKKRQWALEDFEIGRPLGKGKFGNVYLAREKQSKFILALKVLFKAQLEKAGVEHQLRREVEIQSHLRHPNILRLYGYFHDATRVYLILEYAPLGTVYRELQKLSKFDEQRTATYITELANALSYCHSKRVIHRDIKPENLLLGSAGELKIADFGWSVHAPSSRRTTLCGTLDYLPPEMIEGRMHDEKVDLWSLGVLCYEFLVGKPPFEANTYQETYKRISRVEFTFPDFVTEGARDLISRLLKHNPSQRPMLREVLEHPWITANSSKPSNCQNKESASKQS
Protocol: Assays were run in vitro against recombinant kinases. The activity is reported for each kinase, grey histograms for CH21, white for C14 and gradation grey for C1. […] Therefore, C1 and C14 affect differently the Aurora kinase family.
The specificity of C14 was tested, in vitro, against 121 kinases representative of the kinome. Assays run in duplicate, at the concentration of 1 μM, were performed by MRC (Dundee, UK). Results are represented in FIG. 1. The main targets are highlighted in FIG. 1B.
In addition, the percentage of remaining activity of recombinant kinases Aurora kinases A and B and Checkpoint kinases 1 and 2 at the concentration of 1 μM of C1, C2 and C14 have been determined.
The profiling was performed at the MRC (Dundee University), in duplicate, on a set of 121 kinases. The panel is representative of the major different classes of kinases. Compounds were used at the concentration of 1 μM. In vitro, IC50 were determined on recombinant kinases by Reaction biology Corp (USA).

[5] = system: HeLa cells; assay: Cell cycle analysis by FACS (propidium iodide); type: cell-based; conditions: 0.5 μM
Protocol: The influence of the C14 treatment versus C1 and control (Te) were analysed by FACS following propidium iodine labelling. C1 and C14 were added at the concentration of 0.5 μM and the treatment lasted either 30 h or 48 h. On the top histogram, arrows allowed the visualization of the different phases of the cell cycle and the corresponding data are reported in Table 4.
HeLa cells were incubated in the presence of either C1 (0.5 μM) or C14 (0.5 μM) or DMSO (Te) and the reparation of the cells in the different phases is analyzed by FACS.
Cells were incubated in either the presence or the absence of compounds. For determination of cell cycle profile, cells were fixed by ice-cold 70% ethanol for 1 h and then, incubated with propidium iodide solution (50 μg/ml PI in the presence of 0.2 mg/ml RNAse) for 15 minutes at 37° C. DNA content was measured using the FACS flow cytometer equipped with CellQuest Pro software (Becton Dickinson, San Diego, Calif.).

[6] = system: Hek cells stably expressing tubulin-GFP; assay: Time-lapse of Hek cells expressing tubulin-GFP; type: cell-based; conditions: 0.5 μM; continuous imaging
Protocol: Mitotic Hek cells stably expressing tubulin-GFP were continuously imaged and representative of either control or treated cells (C14 and C1, 0.5 μM) are shown. Elapse times are indicated on each photo.
Mitotic Hek cells stably expressing tubulin-GFP were continuously imaged and representative of either control or treated cells (C14 and C1, 0.5 μM) are shown (FIG. 8). Elapse times are indicated on each photo. In the control as well as in the presence of C1 the mitotic spindle is organized (24 min and To respectively) whereas in the presence of C14, the two poles are only connected by few microtubules (97 min and 130 min). Finally, in the presence of C14, cells escape from mitosis and cytoplasmic microtubules are observed (159 min and 212 min). Note that a duplication of the spindle occurs upon C1 treatment (106 min)

[7] = 72 h, HeLa (Cervix), 72 h of treatment, read-out: IC50 (cell line viability)

Compound | IC50 [1] | IC50 [2] | IC50 [3, 7] | effect on kinase activity (FIG. 2, in words) [4] | remaining activity at 1 µM [4] | <2N in % ([5]; 30 h) | >4N in % ([5]; 30 h) | G0/G1 in % ([5]; 30 h) | G2/M in % ([5]; 30 h) | S in % ([5]; 30 h) | <2N in % ([5]; 48 h) | >4N in % ([5]; 48 h) | G0/G1 in % ([5]; 48 h) | G2/M in % ([5]; 48 h) | S in % ([5]; 48 h) | effect on mitotic spindle (in words) [6] | also measured
Cc1cncc2c1[nH]c1ccc3cc(OCCN(C)C)ccc3c12 [CH21, 3-(2-N,N-dimethylaminoethyloxy)-8-methyl-7H-benzo[e]pyrido(4,3-b)indole] | 800 nM | 450 nM | 350 nM | None of these kinases were significantly affected |  |  |  |  |  |  |  |  |  |  |  |  | 
CCc1c[nH]c(=O)c2c1[nH]c1ccc3cc(OC)ccc3c12 [Compound C1, reference compound] |  |  | 960 nM | highly inhibited | 7% | 6% | 26% | 24% | 28% | 13% | 6% | 41% | 18% | 22% | 8% | induced its duplication | cells still cycling ([5]; after 48 h of treatment): 48%
Cc1c[nH]c(=O)c2c1[nH]c1ccc3cc(OCCN(C)C)ccc3c12 [Compound C14, 3-(2-N,N-Dimethylaminoethoxy)-8-methyl-7H,10H-benzo[e]pyrido(4,3-b)indol-11-one] | > 4000 nM | 2000 nM | 110 nM | not affected | 76% | 19% | 56% | 3% | 18% | 4% | 22% | 56% | 2% | 4% | 2% | prevented mitotic spindle organization | IC50 ([3]; HeLa cells, average of three independent experiments, concentration that induced 50% death, read-out: IC50 (in nM), antiproliferative assay): 170 ± 82 nM; remaining activity ([4]; at 1 μM): 76%; cells in G0/G1 and S ([5]; 30 h): 7%; cells in G0/G1 and S ([5]; 48 h): 5%
